Reference: patent US20050233457A1, “Recombining viral vectors for the tetracycline-regulated expression of genes” (priority 2002, published 2005)

System: HT29 colon carcinoma cells
Assay: Luciferase expression in lysates of adenovirally infected HT29 cells
Assay type: cell-based, human
Details: HT29, Ad.3r-luc m.o.i. 30, 24 hours
Protocol: […], Colo205, SkCO-1, AsPc-1, HepG2, MCF-7, BT-20, HeLa, RT4 and U266 cells were seeded in six and twelve (U266) vial-plates at a concentration of 1×10^6 cells per cavity for 6 hours before transfection. The larger HeLa, RT-4 and 293 cells were seeded in a concentration of 5×10^5 cells per vial. U266 myeloma cells were allowed to grow in suspension culture and infected. Purified viral particles were diluted in media without supplementation and the cells were exposed to 500 μl of the suitable virus dilution per vial for 1 hour. After removal of the infectious supernatant, complete media which had been supplemented with different concentrations of doxycycline, were added. The media were changed every 24 hours.
24 hours after infection with Ad.CMV-luc or Ad.3r-luc, the cells were harvested with 150 μl of cell culture lysis reagent according to the manufacturer's (Promega) instructions. The luciferase activity in 20 μl of cell lysate was measured using a Bertold LB9507 luminometer and luciferase assay substrate (Promega). […] The protein concentration was determined using the DC protein assay kit (BioRad, Hercules, Calif.).
Human colon carcinoma cells HT29 are extremely receptive for adenoviral transduction, as has been shown previously (A. Block et al. Cancer Gene Therapy 7 (2000) 438-445). […] The luciferase activity was determined in cell lysates in relation to the dissolved cell protein. […]

Structure (SMILES): C[C@H]1c2cccc(O)c2C(=O)C2=C(O)[C@]3(O)C(=O)C(C(N)=O)=C(O)[C@@H](N(C)C)[C@@H]3[C@@H](O)[C@@H]21 [doxycycline]
- doxycycline concentration leading to a significant reduction in gene expression: 100 pg/mL
